Data as given in patent US20220380341A1, “INHIBITORS OF HIV-1 NEF FOR THE TREATMENT OF HIV DISEASE” (priority 2018, published 2022).
pKd: −log10 of the molar value. Read-outs that look alike come from different tables or passages of the source.

Columns and labels:
[1] = tested on: TZM-bl cell line; assay type: cell-based; conditions: human, 1 μM
Summary of the method: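 Read-out is luciferase from an integrated HIV-1 LTR reporter in TZM-bl cells, 48 h after HIV-1NL4-3 infection in the presence of 1 μM compound. Scale set by DMSO-treated wild-type-infected cells (0%) and Nef-defective virus (100% Nef-dependent effect). Cell Titer Blue measures cytotoxicity without virus.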

[2] = molecular target: HIV-1 NefNL4-3 (Human immunodeficiency virus type 1 group M subtype B, UniProt P03406, A33V/T15A/T51N/V11I); experiment: Surface plasmon resonance binding to recombinant full-length Nef (NL4-3); conditions: for RU30/RUNef (extent of binding): response units at 30 μM relative to Nef immobilized on the SPR chip; for Nef NL4-3 Binding, SPR 1:1 or 2-site fitting KD1: 1:1 Langmuir fit where the KD2 cell says '1 to 1 fitting', else 2-site fit
[3] = tested on: HIV-1NL4-3; experiment: HIV-1 infectivity assay in TZM-bl reporter cell line (LTR-luciferase, 48 h); assay type: cell-based; conditions: Human immunodeficiency virus 1, TZM-bl
Summary of the method: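 Compounds were tested at 1 μM in TZM-bl cells infected with HIV-1NL4-3. Infectivity was read as luciferase signal 48 h after infection and expressed as percent inhibition, normalized between DMSO-treated wild-type infection (0%) and DMSO-treated Nef-defective HIV-1 infection (100% of the Nef-dependent effect).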

[4] = KD, M, Table 4, SPR fit 1:1 Langmuir, KD = koff/kon
[5] = Table 4, 1:1 Langmuir fit, T = 1/koff
[6] = 1.0 μM, TZM-bl reporter cell line, Table 4, read-out: % Infectivity Inhibition
[7] = 48 h, Table 1, TZM-bl cells, 1 μM, 48 h, 100% = Nef-defective HIV-1, read-out: HIV-1 Infectivity % Inhibition Norm. to Δ-Nef @ 1 μM
[8] = KD, M, Table 4, SPR fit 2-step induced fit, KD = koff/kon × koff2/(koff2 + kon2)
[9] = Nef NL4-3 Binding, SPR 2-state fitting KD, Table 1, 2-step induced-fit model
[10] = Table 4, 2-step induced fit, T = 1/koff2
[11] = read-out: Nef NL4-3 Binding, SPR 1:1 or 2-site fitting KD2, Table 1, 2-site fit, second component

Row | Compound | % Cell Viability [1] [%] | Percent Viability @ 1 μM (TZM-bl cells) [1] [%] | pKd [2] | pKd [2, 4] | T, minutes (residence time) [2, 5] [E + 00 minutes] | RU30/RUNef (extent of binding) [2] | inhibition at 1 µM [3, 6] [%] | inhibition at 1 µM [3, 7] [%] | pKd [2, 8] | pKd [2, 9] | T, minutes (residence time) [2, 10] | pKd [2, 11] | Nef NL4-3 Binding, SPR 1:1 or 2-site fitting KD1 ([2]; Table 1) | pKd ([2]; Nef NL4-3 Binding, SPR 1:1 or 2-site fitting KD2, Table 1, 2-site fit, second component)
1 | CS(=O)(=O)N1CCC(Cc2c(-c3ccc(C(F)(F)F)cc3)nn(-c3nc4ccccc4[nH]3)c2O)CC1 [Compound I-718, 1-(1H-1,3-benzodiazol-2-y1)-4-[(1-methanesulfonylpiperidin-4-yl)methyl]-3-[4-(trifluoromethyl)phenyl]-1H-pyrazol-5-ol] | 89.1 | 89.1 | 6.22 | 6.22 | 3.62 | 1.22E- 03 | 56.3 | 56.3 | – | – | – | – | – | –
2 | CC(=O)N1CCC(CCc2c(-c3ccc(C(F)(F)F)cc3)nn(-c3nc4ccccc4[nH]3)c2O)CC1 [Compound I-719, 1-(4-{2-[1-(1H-1,3-benzodiazol-2-yl)-5-hydroxy-3-[4-(trifluoromethyl)phenyl]-1H-pyrazol-4-yl]ethyl}piperidin-1-yl)ethan-1-one] | 98.0 | 98.0 | 5.66 | – | – | 9.42E- 03 | 0 | -8.3 | 6.35 | 6.35 | 4.44E + 01 minutes | – | – | –
3 | CCOC(=O)N1CCC(c2nn(-c3nc4ccccc4[nH]3)c(O)c2CCC2CCOCC2)CC1 [Compound I-723, ethyl 4-[1-(1H-1,3-benzodiazol-2-yl)-5-hydroxy-4-[2-(oxan-4-yl)ethyl]-1H-pyrazol-3-yl]piperidine-1-carboxylate] | 92.2 | 92.2 | 5.68 | – | – | 9.19E- 03 | 0 | -18.1 | 5.04 | 5.04 | 5.21E + 00 minutes | 4.91 | – | –
4 | CN(C)S(=O)(=O)N1CCC(c2nn(-c3nc4ccccc4[nH]3)c(O)c2CCC2CCOCC2)CC1 [Compound I-724, 4-[1-(1H-1,3-benzodiazol-2-yl)-5-hydroxy-4-[2-(oxan-4-yl)ethyl]-1H-pyrazol-3-yl]-N,N-dimethylpiperidine-1-sulfonamide] | – | 98.6 | – | – | – | – | – | 55.8 | – | – | – | – | No Interaction | –
5 | CC(C)OC(=O)N1CCC(c2nn(-c3nc4ccccc4[nH]3)c(O)c2CC2CCOCC2)CC1 [Compound I-725, propan-2-yl 4-[1-(1H-1,3-benzodiazol-2-yl)-5-hydroxy-4-[(oxan-4-yl)methyl]-1H-pyrazol-3-yl]piperidine-1-carboxylate] | 95.6 | 95.6 | 5.48 | 5.48 | 4.73 | 3.88E- 03 | 37.4 | 37.4 | – | – | – | – | – | –
6 | CN1CCN(CC(=O)N2CCC(c3nn(-c4nc5ccccc5[nH]4)c(O)c3CCc3ccc(F)cc3)CC2)CC1 [Compound I-726, 1-{4-[1-(1H-1,3-benzodiazol-2-yl)-4-[2-(4-fluorophenyl)ethyl]-5-hydroxy-1H-pyrazol-3-yl]piperidin-1-yl}-2-(4-methylpiperazin-1-yl)ethan-1-one] | – | 102.4 | – | – | – | – | – | -4.6 | – | – | – | – | No Interaction | –
7 | CO[C@H](C)C(=O)N1CCC(c2nn(-c3nc4ccccc4[nH]3)c(O)c2CCc2ccc(F)cc2)CC1 [Compound I-727, (2R)-1-{4-[1-(1H-1,3-benzodiazol-2-yl)-4-[2-(4-fluorophenyl)ethyl]-5-hydroxy-1H-pyrazol-3-yl]piperidin-1-yl}-2-methoxypropan-1-one] | – | 95.1 | – | – | – | – | – | 8.7 | – | – | – | – | No Interaction | –
8 | O=C(c1cnccn1)N1CCC(c2nn(-c3nc4ccccc4[nH]3)c(O)c2CCc2ccc(F)cc2)CC1 [Compound I-728, 1-(1H-1,3-benzodiazol-2-yl)-4-[2-(4-fluorophenyl)ethyl]-3-[1-(pyrazine-2-carbonyl)piperidin-4-yl]-1H-pyrazol-5-ol] | – | 99.1 | 6.85 | – | – | – | – | 53.7 | – | – | – | – | – | –
9 | O=C(c1ccccn1)N1CCC(c2nn(-c3nc4ccccc4[nH]3)c(O)c2CCc2ccc(F)cc2)CC1 [Compound I-730, 1-(1H-1,3-benzodiazol-2-yl)-4-[2-(4-fluorophenyl)ethyl]-3-[1-(pyridine-2-carbonyl)piperidin-4-yl]-1H-pyrazol-5-ol] | – | 95.1 | – | – | – | – | – | 24.6 | – | – | – | – | No Interaction | –
10 | O=C(c1cccc(O)n1)N1CCC(c2nn(-c3nc4ccccc4[nH]3)c(O)c2CCc2ccc(F)cc2)CC1 [Compound I-731, 6-{4-[1-(1H-1,3-benzodiazol-2-yl)-4-[2-(4-fluorophenyl)ethyl]-5-hydroxy-1H-pyrazol-3-yl]piperidine-1-carbonyl}pyridin-2-ol] | – | 98.9 | – | – | – | – | – | 11.5 | – | – | – | – | No Interaction | –
11 | CC[C@H](C)[C@H](O)C(=O)N1CCC(c2nn(-c3nc4ccccc4[nH]3)c(O)c2CCc2ccc(F)cc2)CC1 [Compound I-732, (2S,3S)-1-{4-[1-(1H-1,3-benzodiazol-2-yl)-4-[2-(4-fluorophenyl)ethyl]-5-hydroxy-1H-pyrazol-3-yl]piperidin-1-yl}-2-hydroxy-3-methylpentan-1-one] | 91.0 | 91.0 | 6.20 | – | – | 3.09E- 03 | 85.5 | 85.5 | 5.38 | 5.38 | 3.78E + 00 minutes | – | – | 5.75
12 | CC[C@H](O)C(=O)N1CCC(c2nn(-c3nc4ccccc4[nH]3)c(O)c2CCc2ccc(F)cc2)CC1 [Compound I-733, (2S)-1-{4-[1-(1H-1,3-benzodiazol-2-yl)-4-[2-(4-fluorophenyl)ethyl]-5-hydroxy-1H-pyrazol-3-yl]piperidin-1-yl}-2-hydroxybutan-1-one] | – | 98.8 | 4.57 | – | – | – | – | 56.5 | – | – | – | – | – | –
13 | O=C(Cc1ccncc1)N1CCC(c2nn(-c3nc4ccccc4[nH]3)c(O)c2CCc2ccc(F)cc2)CC1 [Compound I-734, 1-{4-[1-(1H-1,3-benzodiazol-2-yl)-4-[2-(4-fluorophenyl)ethyl]-5-hydroxy-1H-pyrazol-3-yl]piperidin-1-yl}-2-(pyridin-4-yl)ethan-1-one] | – | 96.0 | 6.24 | – | – | – | – | -8.2 | – | – | – | – | – | –
14 | O=C(C1CCC(O)CC1)N1CCC(c2nn(-c3nc4ccccc4[nH]3)c(O)c2CCc2ccc(F)cc2)CC1 (stereo not drawn) [Compound I-735, 1-(1H-1,3-benzodiazol-2-yl)-4-[2-(4-fluorophenyl)ethyl]-3-[1-(4-hydroxycyclohexanecarbonyl)piperidin-4-yl]-1H-pyrazol-5-ol] | 96.9 | 96.9 | 7.33 | – | – | 6.53E- 03 | 38.8 | 38.8 | 9.30 | 9.30 | 6.44E + 03 minutes | 5.55 | – | –
15 | O=C(C1CCOC1)N1CCC(c2nn(-c3nc4ccccc4[nH]3)c(O)c2CCc2ccc(F)cc2)CC1 (stereo not drawn) [Compound I-736, 1-(1H-1,3-benzodiazol-2-yl)-4-[2-(4-fluorophenyl)ethyl]-3-[1-(oxolane-3-carbonyl)piperidin-4-yl]-1H-pyrazol-5-ol] | 96.0 | 96.0 | 7.00 | – | – | 1.02E- 02 | 7.5 | 7.5 | 8.69 | 8.69 | 1.97E + 03 minutes | 5.71 | – | –
16 | O=C(c1ccoc1)N1CCC(c2nn(-c3nc4ccccc4[nH]3)c(O)c2CCc2ccc(F)cc2)CC1 [Compound I-737, 1-(1H-1,3-benzodiazol-2-yl)-4-[2-(4-fluorophenyl)ethyl]-3-[1-(furan-3-carbonyl)piperidin-4-yl]-1H-pyrazol-5-ol] | 93.0 | 93.0 | 11.31 | – | – | 1.36E- 02 | 0 | -4.8 | 8.77 | 8.77 | 9.06E + 03 minutes | 5.40 | – | –
17 | O=C1NC(=O)C(CC(=O)N2CCC(c3nn(-c4nc5ccccc5[nH]4)c(O)c3CCc3ccc(F)cc3)CC2)N1 (stereo not drawn) [Compound I-738, 5-(2-{4-[1-(1H-1,3-benzodiazol-2-yl)-4-[2-(4-fluorophenyl)ethyl]-5-hydroxy-1H-pyrazol-3-yl]piperidin-1-yl}-2-oxoethyl)imidazolidine-2,4-dione] | – | 100.4 | – | – | – | – | – | -9.9 | – | – | – | – | No Interaction | –
